# Measured values as given in ChEMBL document CHEMBL3397008, “Design, synthesis and evaluation of XZH-5 analogues as STAT3 inhibitors” (Bioorg Med Chem, 2015).
# Tests used:
# Format in all cases: functional, cell-based
# [1] = system: MDA-MB-231; experiment: Cytotoxicity against human MDA-MB-231 cells after 72 hrs by MTT assay; conditions: MDA-MB-231, 72 h
# [2] = system: SW1990; experiment: Cytotoxicity against human SW1990 cells after 72 hrs by MTT assay; conditions: SW1990, 72 h
# [3] = Cytotoxicity against human PANC1 cells after 72 hrs by MTT assay; conditions: PANC-1, 72 h
# [4] = system: HPAC; experiment: Cytotoxicity against human HPAC cells after 72 hrs by MTT assay
Compound,IC50 [1],IC50 [2],IC50 [3],IC50 [4]
COC(=O)[C@H](Cc1cn(C)cn1)NC(=O)[C@@H](NC(=O)Nc1cc(C(F)(F)F)cc(C(F)(F)F)c1)C(C)C,15.5 µM,17.9 µM,24.7 µM,17.4 µM
COC(=O)[C@H](Cc1cn(C)cn1)NC(=O)[C@H](C)NC(=O)Nc1cc(C(F)(F)F)cc(C(F)(F)F)c1,,,50 µM,
COC(=O)[C@H](Cc1cn(C)cn1)NC(=O)[C@H](CC(C)C)NC(=O)Nc1cc(C(F)(F)F)cc(C(F)(F)F)c1,10.6 µM,9.1 µM,16.8 µM,13.2 µM
CC[C@H](C)[C@H](NC(=O)Nc1cc(C(F)(F)F)cc(C(F)(F)F)c1)C(=O)N[C@@H](Cc1cn(C)cn1)C(=O)OC,6.5 µM,8.3 µM,10.1 µM,7.6 µM
CC(C)[C@H](NC(=O)Nc1cc(C(F)(F)F)cc(C(F)(F)F)c1)C(=O)N[C@@H](Cc1cn(C)cn1)C(=O)O,,,> 100 µM,
C[C@H](NC(=O)Nc1cc(C(F)(F)F)cc(C(F)(F)F)c1)C(=O)N[C@@H](Cc1cn(C)cn1)C(=O)O,,,> 100 µM,
COC(=O)[C@H](Cc1cn(C)cn1)NC(=O)[C@H](Cc1ccccc1)NC(=O)Nc1cc(C(F)(F)F)cc(C(F)(F)F)c1,6.8 µM,10.8 µM,16.1 µM,9.6 µM
COC(=O)[C@H](Cc1cn(C)cn1)NC(=O)[C@H](Cc1c[nH]c2ccccc12)NC(=O)Nc1cc(C(F)(F)F)cc(C(F)(F)F)c1,,,31.4 µM,
COC(=O)[C@H](Cc1cn(C)cn1)NC(=O)[C@H](CC(=O)OCc1ccccc1)NC(=O)Nc1cc(C(F)(F)F)cc(C(F)(F)F)c1,,,68.6 µM,
COC(=O)[C@H](Cc1cn(C)cn1)NC(=O)[C@H](CCC(=O)OCc1ccccc1)NC(=O)Nc1cc(C(F)(F)F)cc(C(F)(F)F)c1,,,85.5 µM,
CCn1cnc(C[C@H](NC(=O)[C@@H](NC(=O)Nc2cc(C(F)(F)F)cc(C(F)(F)F)c2)C(C)C)C(=O)OC)c1,7.6 µM,9.4 µM,11.1 µM,9.5 µM
COC(=O)[C@H](Cc1cn(C)cn1)NC(=O)[C@@H](NC(=O)Nc1cc(C(F)(F)F)cc(C(F)(F)F)c1)C(C)(C)C,9.4 µM,8.5 µM,8.8 µM,9.8 µM
COC(=O)[C@H](Cc1c[nH]cn1)NC(=O)[C@@H](NC(=O)Nc1cc(C(F)(F)F)cc(C(F)(F)F)c1)C(C)C,,,98.4 µM,
COC(=O)[C@H](Cc1cn(C)cn1)NC(=O)[C@@H](NC(=O)Nc1cccc(C(F)(F)F)c1)C(C)C,,,61.9 µM,
